From patent publication US10597388B2, “Pyridazinone herbicides” (FMC CORPORATION, priority 2014, dated 2020)

Key:
Test in all cases: Test D controlled growth environment herbicide test, pre- and postemergence
Type in all cases: in vivo
[1] = tested on: lambsquarters (Chenopodium album)
In short: (§1)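 Rating is visual, 0–100 scale (100 = complete control), made against untreated plants 14–21 d after treatment in controlled growth conditions. Postemergence sprays went onto 1- to 4-leaf plants in peat medium; preemergence sprays onto silt loam after sowing; formulation included a surfactant.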

[2] = tested on: blackgrass (Alopecurus myosuroides)
In short: as §1

[3] = tested on: windgrass (Apera spica-venti)
In short: as §1

[4] = tested on: canarygrass (Phalaris minor)
In short: as §1

[5] = tested on: Russian thistle (Salsola kali)
In short: as §1

[6] = tested on: chickweed (common chickweed, Stellaria media)
In short: as §1

[7] = tested on: field violet (Viola arvensis)
In short: as §1

[8] = tested on: foxtail, green (green foxtail, Setaria viridis)
In short: as §1

[9] = tested on: deadnettle (henbit deadnettle, Lamium amplexicaule)
In short: as §1

[10] = tested on: wheat, winter (winter wheat, Triticum aestivum)
In short: as §1

kochia (Kochia scoparia) = tested on: kochia (Kochia scoparia)
In short: as §1

[11] = tested on: ryegrass, Italian (Italian ryegrass, Lolium multiflorum)
In short: as §1

[12] = tested on: wheat, spring (spring wheat, Triticum aestivum)
In short: as §1

[13] = Postemergence, 31 g ai/ha, scale 0 to 100 (0 no effect, 100 complete control)
[14] = Postemergence, 125 g ai/ha, visual rating on scale 0 (no effect) to 100 (complete control), 14 to 21 d
[15] = Postemergence, 250 g ai/ha, scale 0 to 100 (0 no effect, 100 complete control)
[16] = Preemergence, 62 g ai/ha, scale 0 to 100 (0 no effect, 100 complete control)
[17] = Preemergence, 125 g ai/ha, scale 0 to 100 (0 no effect, 100 complete control)
[18] = Preemergence, 250 g ai/ha, scale 0 to 100 (0 no effect, 100 complete control)
[19] = postemergence, 62 g ai/ha, scale 0 to 100, 0 no effect, 100 complete control

`Cc1cc(C)c2sc(C)c(-c3c(OC(=O)OC(C)C)c(C)nn(C)c3=O)c2c1` [Compound 67] was tested, and the “Lambsquarters plant response rating” value [1, 13] was 90, the “Plant response rating, Lambsquarters” value [1, 14] was 100 and the “Plant response rating, Lambsquarters” value [1, 15] was 100. For the same compound, the “Plant response rating (scale of 0 to 100), Lambsquarters” value ([1]; Preemergence, 31 g ai/ha) was 95, the “Plant response rating, Lambsquarters” value [1, 16] was 100 and the “Plant response rating, Lambsquarters” value [1, 17] was 100. For the same compound, the “Plant response rating, Lambsquarters” value [1, 18] was 100, the “Plant response rating, Lambsquarters” value [1, 19] was 100 and the “Blackgrass plant response rating” value [2, 13] was 70. The “Plant response rating, Blackgrass” value [2, 14] was 85, the “Plant response rating, Blackgrass” value [2, 15] was 95 and the “Plant response rating (scale of 0 to 100), Blackgrass” value ([2]; Preemergence, 31 g ai/ha) was 75. The “Plant response rating, Blackgrass” value [2, 16] was 75, the “Plant response rating, Blackgrass” value [2, 17] was 75 and the “Plant response rating, Blackgrass” value [2, 18] was 80. The “Plant response rating, Blackgrass” value [2, 19] was 75, the “Windgrass plant response rating” value [3, 13] was 85 and the “Plant response rating, Windgrass” value [3, 14] was 90. The “Plant response rating, Windgrass” value [3, 15] was 90, the “Plant response rating (scale of 0 to 100), Windgrass” value ([3]; Preemergence, 31 g ai/ha) was 30 and the “Plant response rating, Windgrass” value [3, 16] was 75. For the same compound, the “Plant response rating, Windgrass” value [3, 17] was 80, the “Plant response rating, Windgrass” value [3, 18] was 95 and the “Plant response rating, Windgrass” value [3, 19] was 85. The “Canarygrass plant response rating” value [4, 13] was 75, the “Plant response rating, Canarygrass” value [4, 14] was 85 and the “Plant response rating, Canarygrass” value [4, 15] was 95. For the same compound, the “Plant response rating (scale of 0 to 100), Canarygrass” value ([4]; Preemergence, 31 g ai/ha) was 40, the “Plant response rating, Canarygrass” value [4, 16] was 85 and the “Plant response rating, Canarygrass” value [4, 17] was 90. The “Plant response rating, Canarygrass” value [4, 18] was 95, the “Plant response rating, Canarygrass” value [4, 19] was 85 and the “Russian Thistle plant response rating” value [5, 13] was 55. For the same compound, the “Plant response rating, Russian Thistle” value [5, 14] was 75, the “Plant response rating, Russian Thistle” value [5, 15] was 85 and the “Plant response rating (scale of 0 to 100), Russian Thistle” value ([5]; Preemergence, 31 g ai/ha) was 0. The “Plant response rating, Russian Thistle” value [5, 16] was 0, the “Plant response rating, Russian Thistle” value [5, 17] was 0 and the “Plant response rating, Russian Thistle” value [5, 18] was 25. For the same compound, the “Plant response rating, Russian Thistle” value [5, 19] was 60, the “Chickweed plant response rating” value [6, 13] was 85 and the “Plant response rating, Chickweed” value [6, 14] was 100. For the same compound, the “Plant response rating, Chickweed” value [6, 15] was 100, the “Plant response rating (scale of 0 to 100), Chickweed” value ([6]; Preemergence, 31 g ai/ha) was 100 and the “Plant response rating, Chickweed” value [6, 16] was 100. The “Plant response rating, Chickweed” value [6, 17] was 100, the “Plant response rating, Chickweed” value [6, 18] was 100 and the “Plant response rating, Chickweed” value [6, 19] was 100. For the same compound, the “Field Violet plant response rating” value [7, 13] was 80, the “Plant response rating, Field Violet” value [7, 14] was 90 and the “Plant response rating, Field Violet” value [7, 15] was 95. For the same compound, the “Plant response rating (scale of 0 to 100), Field Violet” value ([7]; Preemergence, 31 g ai/ha) was 85, the “Plant response rating, Field Violet” value [7, 16] was 98 and the “Plant response rating, Field Violet” value [7, 17] was 100. The “Plant response rating, Field Violet” value [7, 18] was 100, the “Plant response rating, Field Violet” value [7, 19] was 80 and the “Foxtail, Green plant response rating” value [8, 13] was 80. The “Plant response rating, Foxtail, Green” value [8, 14] was 100, the “Plant response rating, Foxtail, Green” value [8, 15] was 100 and the “Plant response rating (scale of 0 to 100), Foxtail, Green” value ([8]; Preemergence, 31 g ai/ha) was 15. For the same compound, the “Plant response rating, Foxtail, Green” value [8, 16] was 80, the “Plant response rating, Foxtail, Green” value [8, 17] was 85 and the “Plant response rating, Foxtail, Green” value [8, 18] was 85. The “Plant response rating, Foxtail, Green” value [8, 19] was 90, the “Deadnettle plant response rating” value [9, 13] was 40 and the “Plant response rating, Deadnettle” value [9, 14] was 40. For the same compound, the “Plant response rating, Deadnettle” value [9, 15] was 60, the “Plant response rating (scale of 0 to 100), Deadnettle” value ([9]; Preemergence, 31 g ai/ha) was 15 and the “Plant response rating, Deadnettle” value [9, 16] was 30. For the same compound, the “Plant response rating, Deadnettle” value [9, 17] was 55, the “Plant response rating, Deadnettle” value [9, 18] was 60 and the “Plant response rating, Deadnettle” value [9, 19] was 30. For the same compound, the “Wheat, Winter plant response rating” value [10, 13] was 0, the “Plant response rating, Wheat, Winter” value [10, 14] was 0 and the “Plant response rating, Wheat, Winter” value [10, 15] was 0. For the same compound, the “Plant response rating (scale of 0 to 100), Wheat, Winter” value ([10]; Preemergence, 31 g ai/ha) was 0, the “Plant response rating, Wheat, Winter” value [10, 16] was 0 and the “Plant response rating, Wheat, Winter” value [10, 17] was 0. The “Plant response rating, Wheat, Winter” value [10, 18] was 5, the “Plant response rating, Wheat, Winter” value [10, 19] was 0 and the “Kochia plant response rating” value (kochia (Kochia scoparia); [13]) was 10. For the same compound, the “Plant response rating, Kochia” value (kochia (Kochia scoparia); [14]) was 40, the “Plant response rating, Kochia” value (kochia (Kochia scoparia); [15]) was 50 and the “Plant response rating (scale of 0 to 100), Kochia” value (kochia (Kochia scoparia); Preemergence, 31 g ai/ha) was 0. For the same compound, the “Plant response rating, Kochia” value (kochia (Kochia scoparia); [16]) was 0, the “Plant response rating, Kochia” value (kochia (Kochia scoparia); [17]) was 0 and the “Plant response rating, Kochia” value (kochia (Kochia scoparia); [18]) was 0. The “Plant response rating, Kochia” value (kochia (Kochia scoparia); [19]) was 35, the “Ryegrass, Italian plant response rating” value [11, 13] was 85 and the “Plant response rating, Ryegrass, Italian” value [11, 14] was 98. The “Plant response rating, Ryegrass, Italian” value [11, 15] was 100, the “Plant response rating (scale of 0 to 100), Ryegrass, Italian” value ([11]; Preemergence, 31 g ai/ha) was 75 and the “Plant response rating, Ryegrass, Italian” value [11, 16] was 80. For the same compound, the “Plant response rating, Ryegrass, Italian” value [11, 17] was 85, the “Plant response rating, Ryegrass, Italian” value [11, 18] was 90 and the “Plant response rating, Ryegrass, Italian” value [11, 19] was 90. For the same compound, the “Wheat, Spring plant response rating” value [12, 13] was 0, the “Plant response rating, Wheat, Spring” value [12, 14] was 0 and the “Plant response rating, Wheat, Spring” value [12, 15] was 5. For the same compound, the “Plant response rating (scale of 0 to 100), Wheat, Spring” value ([12]; Preemergence, 31 g ai/ha) was 0, the “Plant response rating, Wheat, Spring” value [12, 16] was 0 and the “Plant response rating, Wheat, Spring” value [12, 17] was 0. The “Plant response rating, Wheat, Spring” value [12, 18] was 10 and the “Plant response rating, Wheat, Spring” value [12, 19] was 0.
